Results: patent US11999699B2, “Substituted pyrazole amides” (GRUENENTHAL GMBH, priority 2021, dated 2024)

Molecular target: T1, human NaV1.8 (Homo sapiens, UniProt Q9Y5Y9)
T1 construct: The following NaV1.8 recombinant cell line was used for recordings: HEK-NaV1.8 (NM 006514.1); expressed in transfected cells; host or cells: HEK (recombinant cell line HEK-NaV1.8)
Assay: Electrophysiology: automated whole-cell voltage-clamp (patch clamp, Qube384) recordings of sodium currents in HEK-NaV1.8 cells
Type: cell-based
Settings: potency data either taken from inactivated or resting state, read-out: Potency category (human NaV1.8 IC50)
Method in brief: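 Automated whole-cell patch clamp at room temperature on HEK cells expressing human NaV1.8, with 0.3% DMSO vehicle controls. State-dependent protocol from −120 mV tested resting (P1) and half-inactivated (P2, 4 s at V1/2) channels, plus 40-pulse trains at 10 and 20 Hz. Values after ~12 min compound exposure were normalised to baseline and corrected for vehicle run-down; IC50 from a 4-parameter logistic fit, taken from inactivated or resting state.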

T1 sequence (Q9Y5Y9 whole entry): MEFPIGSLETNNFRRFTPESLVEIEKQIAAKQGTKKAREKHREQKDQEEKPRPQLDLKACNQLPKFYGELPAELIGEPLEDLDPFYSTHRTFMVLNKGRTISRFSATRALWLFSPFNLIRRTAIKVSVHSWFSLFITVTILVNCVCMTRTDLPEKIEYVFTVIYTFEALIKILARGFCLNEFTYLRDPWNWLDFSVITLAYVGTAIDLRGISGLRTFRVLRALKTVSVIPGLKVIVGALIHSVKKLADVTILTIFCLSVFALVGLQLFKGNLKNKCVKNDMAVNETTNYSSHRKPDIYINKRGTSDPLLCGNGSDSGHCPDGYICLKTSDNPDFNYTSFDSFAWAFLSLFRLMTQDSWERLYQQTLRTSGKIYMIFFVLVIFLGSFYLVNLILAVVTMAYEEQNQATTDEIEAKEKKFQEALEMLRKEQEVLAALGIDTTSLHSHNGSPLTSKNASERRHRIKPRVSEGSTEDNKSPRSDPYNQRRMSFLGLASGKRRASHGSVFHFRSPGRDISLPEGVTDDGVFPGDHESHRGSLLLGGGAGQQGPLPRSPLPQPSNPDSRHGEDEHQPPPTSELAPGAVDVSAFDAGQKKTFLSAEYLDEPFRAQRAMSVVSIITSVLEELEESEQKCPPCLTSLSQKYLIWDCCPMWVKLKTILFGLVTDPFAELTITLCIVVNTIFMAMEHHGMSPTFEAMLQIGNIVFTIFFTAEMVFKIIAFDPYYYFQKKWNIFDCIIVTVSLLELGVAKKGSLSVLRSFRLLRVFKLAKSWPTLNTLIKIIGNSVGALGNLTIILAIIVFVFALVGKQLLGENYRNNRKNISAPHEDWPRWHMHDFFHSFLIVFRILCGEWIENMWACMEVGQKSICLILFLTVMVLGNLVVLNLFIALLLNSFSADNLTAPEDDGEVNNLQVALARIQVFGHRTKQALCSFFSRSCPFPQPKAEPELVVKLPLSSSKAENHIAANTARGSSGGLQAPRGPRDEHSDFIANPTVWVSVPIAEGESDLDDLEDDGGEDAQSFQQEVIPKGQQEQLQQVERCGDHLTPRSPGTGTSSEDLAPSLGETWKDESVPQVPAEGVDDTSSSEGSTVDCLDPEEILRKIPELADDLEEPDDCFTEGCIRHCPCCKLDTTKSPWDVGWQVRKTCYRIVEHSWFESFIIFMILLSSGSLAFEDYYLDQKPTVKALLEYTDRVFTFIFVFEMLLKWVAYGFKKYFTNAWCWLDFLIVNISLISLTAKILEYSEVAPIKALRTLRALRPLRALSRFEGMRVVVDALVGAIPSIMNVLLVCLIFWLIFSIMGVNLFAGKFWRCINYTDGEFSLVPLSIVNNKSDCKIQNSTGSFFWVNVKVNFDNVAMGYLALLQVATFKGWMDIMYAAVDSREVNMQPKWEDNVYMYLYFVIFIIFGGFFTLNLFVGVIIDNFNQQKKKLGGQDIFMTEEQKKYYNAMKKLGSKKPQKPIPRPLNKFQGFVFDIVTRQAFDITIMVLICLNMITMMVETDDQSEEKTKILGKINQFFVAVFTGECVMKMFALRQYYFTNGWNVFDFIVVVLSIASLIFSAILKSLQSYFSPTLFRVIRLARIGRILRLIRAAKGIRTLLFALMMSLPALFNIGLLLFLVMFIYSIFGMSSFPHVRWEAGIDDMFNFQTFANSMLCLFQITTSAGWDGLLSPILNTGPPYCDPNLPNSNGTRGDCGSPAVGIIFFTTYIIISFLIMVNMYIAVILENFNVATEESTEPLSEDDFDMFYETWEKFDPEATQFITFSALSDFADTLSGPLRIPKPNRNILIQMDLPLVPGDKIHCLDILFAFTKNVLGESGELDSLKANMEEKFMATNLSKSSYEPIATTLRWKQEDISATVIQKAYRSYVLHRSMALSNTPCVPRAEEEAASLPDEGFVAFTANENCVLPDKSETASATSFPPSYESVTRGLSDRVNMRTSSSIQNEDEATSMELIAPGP
T1 sequence (Q9NY72 23-215 partner): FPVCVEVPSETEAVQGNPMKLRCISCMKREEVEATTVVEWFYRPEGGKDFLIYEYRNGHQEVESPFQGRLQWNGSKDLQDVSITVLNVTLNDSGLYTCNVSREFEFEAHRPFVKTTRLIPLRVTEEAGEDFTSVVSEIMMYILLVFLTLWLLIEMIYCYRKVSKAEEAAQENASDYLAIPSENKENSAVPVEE

SMILES | IC50
C[S+]([O-])c1cc(NC(=O)c2c(C(F)(F)F)c(C(C)(F)F)nn2CC2CC(F)(F)C2)ccn1 (stereo not shown) [SC-303, 1-((3,3-difluorocyclobutyl)methyl)-3-(1,1-difluoroethyl)-N-(2-(methylsulfinyl)pyridin-4-yl)-4-(trifluoromethyl)-1H-pyrazole-5-carboxamide] | ≤ 100 nM
Cc1nn(CC2CCC(F)(F)C2)c(C(=O)Nc2cccc(S(N)(=O)=O)c2)c1OC(F)(F)F (stereo not shown) [SC-304, 1-((3,3-difluorocyclopentyl)methyl)-3-methyl-N-(3-sulfamoyiphenyl)-4-(trifluoromethoxy)-1H-pyrazole-5-carboxamide] | 100 to 1000 nM
CS(=O)(=O)c1cc(NC(=O)c2c(CC(F)(F)F)c(C3CC3)nn2CC2CCOCC2)ccn1 [SC-305, 3-cyclopropyl-N-(2-(methylsulfonyl)pyridin-4-yl)-1-((tetrahydro-2H-pyran-4-yl)methyl)-4-(2,2,2-trifluoroethyl)-1H-pyrazole-5-carboxamide] | 1000 to 10000 nM
COC1(Cn2nc(C(C)(F)F)c(C)c2C(=O)Nc2ccnc(S(N)(=O)=O)c2)CC1 [SC-308, 3-(1,1-difluoroethyl)-1-((1-methoxycyclopropyl)methyl)-4-methyl-N-(2-sulfamoylpyridin-4-yl)-1H-pyrazole-5-carboxamide] | 1000 to 10000 nM
Cc1c(OC(C)(F)F)nn(CC2CC(F)(F)C2)c1C(=O)Nc1ccnc(C(N)=O)c1 [SC-309, 4-(1-((3,3-difluorocyclobutyl)methyl)-3-(1,1-difluoroethoxy)-4-methyl-1H-pyrazole-5-carboxamido)picolinamide] | 1000 to 10000 nM
Cc1c(C(C)(F)F)nn(CC2(F)CC2)c1C(=O)Nc1ccnc(S(N)(=O)=O)c1 [SC-310, 3-(1,1-difluoroethyl)-1-((1-fluorocyclopropyl)methyl)-4-methyl-N-(2-sulfamoylpyridin-4-yl)-lH-pyrazole-5-carboxamide] | 100 to 1000 nM
Cc1c(C(C)(F)F)nn(CC2(C(F)F)CC(F)(F)C2)c1C(=O)Nc1ccnc(C(N)=O)c1 [SC-311, 4-(3-(1,1-difluoroethyl)-1-((1-(difluoromethyl)-3,3-difluorocyclobutyl)methyl)-4-methyl-1H-pyrazole-5-carboxamido)picolinamide] | ≤ 100 nM
Cc1c(C(C)(F)F)nn(CC2(C)CC2)c1C(=O)Nc1ccnc(S(N)(=O)=O)c1 [SC-313, 3-(1,1-difluoroethyl)-4-methyl-1-((1-methyleyelopropyl)methyl)-N-(2-sulfamoylpyridin-4-yl)-lH-pyrazole-5-carboxamide] | ≤ 100 nM
Cc1c(C(C)(F)F)nn(CC2C[C@H]2C)c1C(=O)Nc1ccnc(S(N)(=O)=O)c1 (stereo partly shown) [SC-314, 3-(1,1-difluoroethyl)-4-methyl-1-((2-methyleyelopropyl)methyl)-N-(2-sulfamoylpyridin-4-yl)-lH-pyrazole-5-carboxamide] | ≤ 100 nM
Cc1c(C(C)(F)F)nn(CC2(C(F)F)CC(F)(F)C2)c1C(=O)Nc1ccnc(S(N)(=O)=O)c1 [SC-316, 3-(1,1-difluoroethyl)-1-((1-(difluoromethyl)-3,3-difluorocyclobutyl)methyl)-4-methyl-N-(2-sulfamoylpyridin-4-yl)-1H-pyrazole-5-carboxamide] | ≤ 100 nM
Cc1c(C(C)(F)F)nn(CC2(C)CCO2)c1C(=O)Nc1ccnc(S(N)(=O)=O)c1 (stereo not shown) [SC-317, 3-(1,1-difluoroethyl)-4-methyl-1-((2-methyloxetan-2-yl)methyl)-N-(2-sulfamoylpyridin-4-yl)-lH-pyrazole-5-carboxamide] | 1000 to 10000 nM
Cc1c(OC(F)(F)F)nn(CC2CC(F)(F)C2)c1C(=O)Nc1ccnc(C(N)=O)c1 [SC-318, 4-(1-((3,3-difluorocyclobutyl)methyl)-4-methyl-3-(trifluoromethoxy)-1H-pyrazole-5-carboxamido)picolinamide] | 100 to 1000 nM
Cc1c(C(F)(F)F)nn(CC2CCC(F)(F)CC2)c1C(=O)Nc1ccnc(S(N)(=O)=O)c1 [SC-320, 1-((4,4-difluorocyclohexyl)methyl)-4-methyl-N-(2-sulfamoylpyridin-4-yl)-3-(trifluoromethyl)-1H-pyrazole-5-carboxamide] | ≤ 100 nM
